In BindingDB's records for doi:10.1016/j.ejmech.2021.113604 (China Pharmaceutical University, 2021):

What was measured:
[1] = target: Heat shock protein HSP 90-alpha (Homo sapiens, UniProt P07900); experiment: Binding affinity to His-tagged human N-terminal HSP90alpha (1 to 236 residues) expressed in Escherichia coli BL21 (DE3) assessed as dissociation constant at 1.1 to 30 uM measured by BLI assay
Endoplasmin = Endoplasmin (Canis lupus familiaris, UniProt P41148); experiment: Binding affinity to GST-tagged dog GRP94 (69 to 337 residues) expressed in Escherichia coli BL21 (DE3) assessed as dissociation constant at 0.37 to 10 uM measured by BLI assay
Endoplasmin, sequence (P41148 whole entry, the tested form may be a part): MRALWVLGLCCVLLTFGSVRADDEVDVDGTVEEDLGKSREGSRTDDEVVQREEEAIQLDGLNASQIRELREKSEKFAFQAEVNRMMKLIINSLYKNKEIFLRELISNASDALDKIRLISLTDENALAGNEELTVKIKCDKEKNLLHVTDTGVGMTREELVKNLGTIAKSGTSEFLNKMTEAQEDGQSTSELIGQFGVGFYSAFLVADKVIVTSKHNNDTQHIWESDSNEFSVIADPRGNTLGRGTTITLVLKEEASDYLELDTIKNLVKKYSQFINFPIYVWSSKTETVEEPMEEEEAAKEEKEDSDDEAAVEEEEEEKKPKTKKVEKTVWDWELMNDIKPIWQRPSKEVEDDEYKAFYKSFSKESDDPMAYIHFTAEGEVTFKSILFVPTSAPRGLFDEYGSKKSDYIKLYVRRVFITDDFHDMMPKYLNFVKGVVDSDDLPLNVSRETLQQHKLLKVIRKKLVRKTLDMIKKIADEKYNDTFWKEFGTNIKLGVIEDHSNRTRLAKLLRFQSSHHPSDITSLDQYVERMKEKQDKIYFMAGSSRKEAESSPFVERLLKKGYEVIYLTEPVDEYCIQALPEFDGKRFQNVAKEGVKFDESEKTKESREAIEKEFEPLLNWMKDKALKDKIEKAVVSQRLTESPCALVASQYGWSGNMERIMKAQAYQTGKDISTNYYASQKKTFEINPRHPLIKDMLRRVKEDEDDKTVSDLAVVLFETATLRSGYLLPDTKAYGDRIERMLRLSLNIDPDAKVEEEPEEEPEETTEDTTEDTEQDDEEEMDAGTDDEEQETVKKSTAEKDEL

Q: Which results are given for `CCCCC#Cc1ccc(N[C@H]2CC[C@H](O)CC2)c(C(N)=O)c1`?
A: koff [1]: 0.114 s⁻¹; koff (Endoplasmin): 0.0284 s⁻¹
